Test results published in PMC11784013, “Potassium molybdate blocks APN-dependent coronavirus entry by degrading receptor via PIK3C3-mediated autophagy” (Journal of Virology, 2024).

What was measured:
[1] = tested on: intestinal organoids; test: Cell Counting Kit 8 cytotoxicity assay in intestinal organoids; format: cell-based, porcine; conditions: PM at concentrations less than 30 mM, 24 h
Experimental: Fig 2 PM restricts TGEV and PRCV infection in porcine intestinal organoids. (A) Intestinal organoids cultured in 96-well plate were incubated with different concentrations of PM for 24 h, which was tested by Cell Counting Kit 8. (B and C) The intestinal organoids monolayer was treated with indicated PM and infected with TGEV Miller (0.1 MOI) for 24 h, which was measured by IFA (B), scale bar: 50 µm, RT-qPCR, TCID50, and western blot (C). (D) Apical-out intestinal organoids were treated with indicated PM and infected TGEV Miller (1 MOI) for 48 h, which was determined by RT-qPCR, TCID50, and western blot. (E and F) The intestinal organoids monolayer was treated with different concentrations of PM and infected with PRCV for 24 h, which was determined by IFA (E), scale bar: 50 µm, RT-qPCR, TCID50, and western blot (F). (G) Apical-out intestinal organoids were treated with indicated PM and infected PRCV (1 MOI) for 48 h, which was detected by RT-qPCR, TCID50, and western blot. Results are presented as mean ± SD of data from three independent experiments. **, P ≤ 0.01; ***, P ≤ 0.001.
ST cells or intestinal organoids cultured in a 96-well plate were incubated with different concentrations of PM (0, 0.1, 0.25, 0.5, 1, 2.5, 5, 10, 20, and 30 mM) for 24 h. […] The absorbance of each well was then measured at 450 nm using a microplate reader to determine cell viability.

[2] = tested on: PEDV LJX 01/2014; test: PEDV infection of Vero-E6 cells (TCID50, western blot); format: cell-based, porcine epidemic diarrhea virus; conditions: TCID50 and western blot
Experimental: Fig 1 PM inhibits TGEV and PRCV infection in ST cells. (A) A cytotoxicity assay of PM in ST cells. ST cells cultured in a 96-well plate were incubated with different concentrations of PM for 24 h, which was tested by Cell Counting Kit 8. (B) Time course for PM inhibiting TGEV or PRCV or PEDV infection assay. (C–F) The ST cells, pretreated with PM at the indicated concentrations for 1 h were infected with TGEV Miller (0.1 MOI) or PRCV (0.1 MOI) for 1 h and were again treated with PM at 37°C for 17 h. The cell samples were collected and examined by real-time quantitative PCR (RT-qPCR), TCID50, western blot (C and D), and immunofluorescence assay (IFA) (E and F), scale bar: 50 µm. (G) Vero-E6 cells were treated with indicated PM and infected with PEDV LJX 01/2014 according to the time course of Fig. 1B, which was detected by TCID50 and western blot. Results are presented as mean ± SD of data from three independent experiments. ns, no significant; **, P ≤ 0.01; ***, P ≤ 0.001.

[3] = tested on: PIK3C3; test: PIK3C3 expression in ST cells (western blot); format: cell-based, porcine; conditions: PM 10 mM, 16 h; for PIK3C3 level, western blot, relative to WT without PM (=1): PRCV 0.1 MOI
Experimental: (§1) Fig 7 PM degrades APN expression via activating PIK3C3-mediated autophagy. (A) Graphical representation for autophagy and the targets of different autophagy inhibitors. (B) ST cells were treated with PM (10 mM) in the presence and absence of 3-MA (20 mM), SBI0206965 (20 µM), and 3BDO (30 µM) for 16 h, and the APN expression was detected by western blot. (C) ST cells were treated with PM (10 mM) in the presence and absence of 3-MA (20 mM) for 16 h, and the APN, PIK3C3, ATG14, BECN1, P62, and LC3 were measured by western blot. (D) ST cells were transfected with PIK3C3 siRNA-1, PIK3C3 siRNA-2, PIK3C3 siRNA-3, PIK3C3 siRNA-4, and NC siRNA for 24 h, the PIK3C3 expression was detected by western blot. (E) ST cells were transfected with PIK3C3 siRNA-4 or NC siRNA for 24 h and then treated with PM (10 mM) for 16 h. The APN, PIK3C3, ATG14, BECN1, P62, and LC3 were detected by western blot. (F) Sequencing diagram for WT ST cells and PIK3C3 KO ST cells. (G) PIK3C3 was detected by western blot in WT ST cells and PIK3C3 KO ST cells. (H) WT ST cells and PIK3C3 KO ST cells were treated with PM (10 mM) for 16 h and then the APN, PIK3C3, ATG14, BECN1, P62, and LC3 were detected by western blot. (I) WT ST cells and PIK3C3 KO ST cells were transfected with pCMV-Myc and pCMV-Myc-PIK3C3, respectively, for 24 h and treated with PM (10 mM) for 16 h. The APN, PIK3C3, P62, and LC3 were detected by western blot. All western blot results were calculated by Image J. All experiments were performed in triplicate.
Fig. S8. PM inhibits PRCV infection by degrading APN via PIK3C3-mediated autophagy. (A-C) WT ST cells and PIK3C3 KO ST cells were treated with PM (10 mM) and infected with PRCV (0.1 MOI) for 16 h. Then the APN, PIK3C3, ATG14, BECN1, P62, PRCV N and LC3 were detected by western blot (A), and viral titers and PRCV N mRNA level were determined by TCID50 (B) and RT-qPCR (C) . […] The APN, PIK3C3, P62, PRCV N and LC3 were determined by western blot (D). […]

[4] = tested on: ATG14; test: ATG14 expression in ST cells (western blot); format: cell-based, porcine; conditions: Fig. S8A, PM 10 mM, PRCV 0.1 MOI, 16 h
Experimental: as §1, with “(E) ST cells were transfected with PIK3C3 siRNA-4 or NC siRNA for 24 h and then treated with PM (10 mM) for 16 h.” left out, “(F) Sequencing diagram for WT ST cells and PIK3C3 KO ST cells.” left out, “(I) WT ST cells and PIK3C3 KO ST cells were transfected with pCMV-Myc and pCMV-Myc-PIK3C3, respectively, for 24 h and treated with PM (10 mM) for 16 h.” left out
Fig. S8. […] Then the APN, PIK3C3, ATG14, BECN1, P62, PRCV N and LC3 were detected by western blot (A), and viral titers and PRCV N mRNA level were determined by TCID50 (B) and RT-qPCR (C) . […]

[K+].[K+].[O]=[Mo](=[O])([O-])[O-] [PM, potassium molybdate]
cytotoxicity (Cell Counting Kit 8) [1]: did not cause significant cytotoxicity
PEDV infection [2]: unable to repress PEDV infection
PIK3C3 level, western blot, relative to WT without PM (=1) ([3]; Fig. S8A, WT ST cells): 2.83
PIK3C3 level, western blot, relative to WT without PM (=1) ([3]; Fig. S8D, WT ST cells with pCMV-Myc): 1.73
PIK3C3 expression ([3]; ST cells, western blot): activated PIK3C3 expression
ATG14 level, western blot, relative to WT without PM (=1) ([4]; PIK3C3 KO ST cells): 1.03
ATG14 level, western blot, relative to WT without PM (=1) ([4]; WT ST cells): 1.07
